Reference: US20260216166A1, “COMPOUND FOR TREATMENT OF ERECTILE DYSFUNCTION” (Initiator Pharma A/S, priority 2023, published 2026)
“Also recorded” adds a separate entry of the source.

Tests used:
Assay type in all cases: in vivo, human
sperm count and motility = assay: Semen analysis after repeat single oral doses in male subjects with ED; settings: 5 mg or 10 mg, four weekly doses; Day -7 versus Week 4
Description: (§1) On Day-7, and at the Week 1 (Day 1), Week 2, Week 3, Week 4 and Follow-up visits, all groups were asked to complete the IIEF-15 questionnaire. Group 2 was asked to complete a Visual Stimulation Assessment using a RigiScan Plus Monitor on Day-7, Week 1 (Day 1) and Week 4. Group 2 was also required to provide blood samples for pharmacokinetic assessment on Week 1 (Day 1) and Week 4. Group 3 was required to provide semen samples on Day-7 and Week 4.
(§2) Efficacy was assessed through the International Index of Erectile Function (IIEF)-15 questionnaire. The change from baseline in responses to questions of the IIEF-15 questionnaire, including questions regarding erectile function, orgasmic function, sexual desire, intercourse satisfaction and overall satisfaction domain scores, was determined at different time points of the study. RigiScan assessments during the stimulus assessment, and sperm count and motility by semen sample collection was used for efficacy evaluation. Safety was assessed through AE reporting, 12-lead ECG, vital signs, physical examinations and clinical laboratory evaluations. Pharmacokinetics was assessed by blood sampling.

healthy male subjects = assay: Phase I ascending single oral dose safety and tolerability in healthy male subjects
Description: The study was a Phase I, randomised, double-blind, placebo-controlled, ascending single oral dose, safety, tolerability, pharmacokinetic (PK) and pharmacodynamics (PD) study of IP2015 in healthy male subjects.
Each subject received one oral dose of IP2015 or matched placebo. The starting dose of IP2015 was 0.01 mg in Cohort 1. The dose level was to be escalated to a maximum of 0.05 mg in Cohort 2 and a maximum of 0.2 mg in Cohort 3. The doses in the remaining five cohorts were to be determined based on the dose escalation criteria. In every cohort, no more than 2 subjects were dosed on the first dosing day (1 active; 1 placebo) such that no more than 1 subject received an active IP2015 dose for the first time at each dose level.
The doses used in each cohort were as follows: • Cohort 1-0.01 mg • Cohort 2-0.05 mg • Cohort 3-0.2 mg • Cohort 4-0.6 mg • Cohort 5-1.8 mg • Cohort 6-5.4 mg • Cohort 7-16.2 mg • Cohort 8-10 mg
The study evaluated the clinical safety data from adverse event (AE) reporting, 12-lead electrocardiogram (ECG), cardiac telemetry, vital signs (standing and supine blood pressure (BP), heart rate (HR), oral temperature and clinical laboratory evaluations (chemistry, haematology, urinalysis) and physical examinations in healthy male subjects.
(§3) Safety parameters were listed and summarised using descriptive statistics. Pharmacokinetic parameter estimates were calculated using noncompartmental methods. Pharmacokinetic data were listed for each subject/patient and summarised by descriptive statistics.

[1] = test system: male subjects with erectile dysfunction (ED); assay: IIEF-15 questionnaire after repeat single oral doses in male subjects with ED
Excerpt: The international index of erectile function (IIEF-15) questionnaire is a validated, multi-dimensional, self-administered investigation that has been found useful in the clinical assessment of erectile dysfunction and treatment outcomes in clinical trials. A score of 0-5 is awarded to each of the 15 questions that examine the main domains of male sexual function: erectile function, orgasmic function, sexual desire and intercourse satisfaction.
130 subjects were divided into 3 groups upon which the study was conducted in parallel. Each subject was dosed on four occasions with either 5 mg IP2015, 10 mg IP2015 or matched placebo. In each group, subjects were randomised evenly to each of the three study treatments and received the same treatment at each visit.
The study lasted approximately 8 weeks and consisted of the following: • A screening visit (up to 21 days prior to the baseline visit) • A baseline visit (Day −7). • Outpatient visits on Week 1 (Day 1), Week 2, Week 3 and Week 4 • A follow-up visit a minimum of 7 to 10 days after their final dose.
as §1
There were three potential study treatments of 5 mg IP2015, 10 mg IP2015 or matched placebo. In each group, subjects were randomised evenly to each of the three study treatments and received the same treatment on each visit. IP2015 or matched placebo was administered once in the morning of Week 1 (Day 1), Week 2, Week 3, and Week 4 as an oral solution in the fasted state. The dose was taken with 240 ml of water at room temperature. Subjects had fasted 2 hours prior to dosing until 4 hours postdose. Water was allowed ad libitum except for 1 hour before and 1 hour after dosing.
as §2
The results are means±SE. The statistical differences were performed with Mixed Model Repeated Measures (MMRM).

male patients with ED = assay: Phase II single oral dose safety in male patients with ED
Description: The study was an exploratory Phase II, randomised, placebo-controlled, double-blind, crossover study, investigating the effects of a single oral dose of IP2015 on erectile function in males with ED. A dose level of 10 mg was selected. Patients were enrolled into two cohorts. Both cohorts participated in two periods (Period 1 and Period 2) and received a single dose of IP2015 and a single dose of placebo.
The study evaluated the efficacy data from RigiScan assessments in male patients with ED and the clinical safety data from AE reporting, 12-lead ECGs, vital signs, physical examinations and clinical laboratory evaluations in male patients with ED.
as §3

[2] = overall, crossover 10 mg IP2015 and placebo
[3] = overall, crossover 10 mg IP2015 and placebo, 12 patients

In the case of `COc1cc2ccc(OC3CC4CCC(C3)N4)cc2oc1=O` (stereo not shown) [IP2015, 7-[(8-azabicyclo[3.2.1]octan-3-yl)oxy]-3-methoxy-chromen-2-one], the “sperm count, motility, or morphology” value (sperm count and motility) is reported as “did not have negative effects on sperm count, motility, or morphology”, the “incidence of TEAEs” value (healthy male subjects; 0.01 mg to 10 mg dose range) is reported as “lower incidence of treatment-emergent adverse effects (TEAEs) compared to higher doses; also recorded: relatively low; also recorded: lower side effects than doses of 16.2 mg” and the “mean ECG parameters” value (healthy male subjects; 0.01 mg to 10 mg dose range) is reported as “no significant treatment- or dose-related trends”. The vital sign values (healthy male subjects; 0.01 mg to 10 mg dose range) was “no significant treatment- or dose-related trends”, the “subjects with sustained tachycardia for several hours” value (healthy male subjects; 16.2 mg) was 2 and the “incidence of side effects” value (healthy male subjects; 16.2 mg compared to 0.01 mg to 10 mg) was “increased at 16.2 mg compared to the 0.01 mg to 10 mg dose range”. For the same compound, the “subjects reporting at least one TEAE” value (healthy male subjects; 16.2 mg dose group (all subjects)) was 4, the standing pulse rate (healthy male subjects; 16.2 mg, 2, 3, 4, 6, 8, 10 and 12 hours postdose) was “increases from baseline” and the supine pulse rate (healthy male subjects; 16.2 mg, 6, 8 and 10 hours postdose) was “increases from baseline”. For the same compound, the “heart rate (ECG)” value (healthy male subjects; 16.2 mg, 8 and 12 hours postdose) was “increases from baseline”, the “haematology, serum biochemistry or urinalysis data” value (healthy male subjects; healthy males, single oral doses) was “no significant treatment- or dose-related trends” and the “total TEAEs” value (healthy male subjects; in the 40 subjects who received IP2015, 0.01-16.2 mg) was 32. The “subjects experiencing TEAEs” value (healthy male subjects; of the 40 subjects who received IP2015, 0.01-16.2 mg) was 16, the “discontinuation due to a TEAE” value (healthy male subjects; whole Phase I study) was “no subjects discontinued due to a TEAE” and the “severity of TEAEs” value (healthy male subjects; whole Phase I study) was “majority of events were mild in severity”. For the same compound, the “efficacy in treating erectile dysfunction” value ([1]; 5 mg individual doses, human subjects, compared to placebo) was “effective in the treatment of erectile dysfunction; also recorded: effective in treating erectile dysfunction”, the “overall response to questions of IIEF-15 versus baseline” value ([1]; 5 mg, at follow-up, p=0.0046) was “significant” and the “overall response to questions of IIEF-15 versus placebo” value ([1]; 5 mg, at follow-up, p=0.07) was “tendency”. For the same compound, the “IIEF-15 overall score versus baseline” value ([1]; 5 mg, p=0.0032) was “the same was the case”, the “IIEF-15 Q4 (ability to maintain erection), overall score versus baseline” value ([1]; 5 mg, p=0.056) was “tendency to difference” and the “IIEF-15 overall score versus placebo” value ([1]; 5 mg, p=0.10) was “tendency”. The “IIEF-15 Q4, overall score compared to placebo” value ([1]; 5 mg, p=0.44) was “no difference”, the “IIEF-15 Q3, overall score” value ([1]; 5 mg, versus placebo (p=0.07) and versus baseline (p=0.07)) was “tendency to difference” and the “IIEF-15 Q3 (ability to penetrate), change from baseline” value ([1]; 5 mg, week 3, versus placebo (p=0.034) and versus baseline (p=0.046)) was “significant effect”. For the same compound, the “overall IIEF-15 score change” value ([1]; low dose of IP2015, clinically significant) was 2, the “heart rate, increase from baseline” value (male patients with ED; 10 mg, 8 hours postdose) was 14.56 bpm and the “RR, PR, QRS, QT and QTcF intervals, IP2015 versus placebo” value (male patients with ED; male patients with ED, 10 mg) was “no significant treatment-related differences”. For the same compound, the “haematology, serum biochemistry or urinalysis data” value (male patients with ED; male patients with ED, 10 mg) was “no significant treatment- or dose-related trends”, the “standing and supine pulse rate” value (male patients with ED; male patients with ED, 10 mg) was “apparent treatment-related increase” and the “systolic blood pressure, diastolic blood pressure and oral temperature, IP2015 versus placebo” value (male patients with ED; male patients with ED, 10 mg) was “no significant treatment-related differences”. The “deaths or SAEs” value (male patients with ED; [2]) was “No deaths or SAEs were reported”, the “severity of TEAEs” value (male patients with ED; [2]) was “All events were mild in severity” and the “number of TEAEs” value (male patients with ED; [3]) was 19. For the same compound, the “patients experiencing TEAEs” value (male patients with ED; [3]) was 9 (75.0%).
